Patent US20240390400A1, “ENPP1 INHIBITORS AS INHIBITORS OF METASTASIS” (Angarus Therapeutics, Inc., priority 2021, published 2024)
Where “and” joins values, the source holds several entries; their conditions need not be identical. Equal entries are not always repeated.

Experiments:
[1] = system: EMT6 tumor cells; experiment: EMT-6 tumor model (tumor volume and lung metastasis); format: in vivo, female Balb/c mice
Protocol: Test animals were female Balb/c mice aged 5-8 weeks at inoculation.
The EMT6 tumor cells were maintained in vitro with DMEM medium supplemented with 10% fetal bovine serum at 37° C. in an atmosphere of 5% CO2 in air. The cells in exponential growth phase were harvested and quantitated by cell counter before tumor inoculation.
Each mouse was inoculated subcutaneously in the right flank region with EMT6 tumor cells (5×10^5) in 0.1 ml of PBS for tumor development.
Staggered inoculation was performed. G1, 2, 3, 6, 7 were inoculated one day before G4, 5, 8, 9, 10.
The randomization started when the mean tumor size reached approximately 80 (60-110) mm^3. 100 mice were enrolled in the study. All animals were randomly allocated to 10 study groups. Randomization was performed based on “Matched distribution” method (StudyDirector™ software, version 3.1.399.19).
Staggered randomization was performed. G1, 2, 3, 6, 7 were randomized one day before G4, 5, 8, 9, 10.
The date of tumor randomization was denoted as day 0.
After tumor cells inoculation, the animals were checked daily for morbidity and mortality. During routine monitoring, the animals were checked for any effects of tumor growth and treatments on behavior such as mobility, food and water consumption, body weight gain/loss (body weights were measured twice per week after randomization), eye/hair matting and any other abnormalities. Mortality and observed clinical signs were recorded for individual animals in detail.
Tumor volumes were measured twice per week in two dimensions using a caliper, and the volume was expressed in mm^3 using the formula: “V=(L×W×W)/2, where V is tumor volume, L is tumor length (the longest tumor dimension) and W is tumor width (the longest tumor dimension perpendicular to L). (Tumor weight was measured at the end of study). Dosing as well as tumor and body weight measurements were conducted in a Laminar Flow Cabinet.
The study was terminated at 4 weeks post randomization. Individual animals were euthanized when TV>3000 mm^3.
For comparison between two groups, a Student's t-test was performed. For comparison among three or more groups, an one-way ANOVA was performed followed by multiple comparison procedures. All data were analyzed using SPSS 18.0 and/or GraphPad Prism 5.0. P<0.05 is considered statistically significant.
Animals were treated with vehicle, cpd 76, radiotherapy, or anti-PD-L1, or a combination of treatments. Compound 76 was dosed 50 mg/kg and formulated 5 mg/ml in PBS. Radiotherapy used the X-RAD 225Cx SmART Small Animal Radiation Therapy System (Crownbio). Ten animals were in each group and dosing was performed as in Table 4.

[2] = Animal weight in 4T1 tumor model study; format: in vivo, Mus musculus, BALB/c; conditions: throughout the study; Groups 3 and 4 until Day 21, Groups 1 and 2 until Day 25
Protocol: All treatment groups were compared to the vehicle control given subcutaneously once a day on Days 7, 8, 9, 14, 15 and 16 (Group 1).
At necropsies, animals were weighed, and a final in vivo tumor volume measurement was performed.

**Q.** Which “effect on tumor growth” value ([1]; Compound 76 50 mg/kg QD 1-7 combined with IR and aPD-L1 (triple combo)) does the source give for `COc1cccc2c(N3CCC(CCP(=O)(O)O)CC3)ncnc12` [Compound 76] here?
**A.** synergistic effect

**Q.** And the “lung metastasis (animals with metastasis / animals)” value ([1]; Compound 76 QD 1-7 d combined with aPD-L1 (Groups 9 and 10), study termination day 29)?
**A.** 0/20

**Q.** And the “effect on tumor volume / tumor growth” value ([1]; single agent, Compound 76 50 mg/kg QD 1-7 only or 3 d on/4 d off for 4 weeks, aPD-L1 2.5 mg/kg)?
**A.** no effect on tumor volume

**Q.** What about the “lung metastasis (animals with metastasis / animals in group)” value ([1]; single agent, study termination day 29) of the same compound?
**A.** 7/10 and 8/10

**Q.** Which mean animal weights [2] does the source give for `COc1cccc2c1C(=O)c1c(O)c3c(c(O)c1C2=O)C[C@@](O)(C(=O)CO)C[C@@H]3O[C@H]1C[C@H](N)[C@H](O)[C@H](C)O1` [doxorubicin, Doxorubicin] here?
**A.** continuously decreased
